The text below walks through data of patent US4822791A, “Pharmaceutical compositions of-2,2-1,1-[bis-2,2'-(3,1-benzoxazin-4-one)9 ethylenes” (priority 1984, dated 1989).

Broadly, the IC50 is the concentration that gives 50% inhibition.

Read-outs that look alike come from different tables or passages of the source. Where only a bound is given, the exact number is not on record here.

The nature of series [1]: Acute toxicity LD50 in mice (Test Example 8). The conditions noted are these: mouse, in vivo, one week, Probit method. As for the experimental part:
ddy-Strain mice (male) and Wistar strain rats were used to obtain LD50 values.
According to the ordinary procedure, suspension or solution of test sample was administered to the animals. From the number of the died animals until one week after the administration, LD50 values were obtained by Probit method.

In series [2] the target is T1, hyaluronidase (Bos taurus, UniProt Q2YDK3).
T1 sequence (Q2YDK3 36-553): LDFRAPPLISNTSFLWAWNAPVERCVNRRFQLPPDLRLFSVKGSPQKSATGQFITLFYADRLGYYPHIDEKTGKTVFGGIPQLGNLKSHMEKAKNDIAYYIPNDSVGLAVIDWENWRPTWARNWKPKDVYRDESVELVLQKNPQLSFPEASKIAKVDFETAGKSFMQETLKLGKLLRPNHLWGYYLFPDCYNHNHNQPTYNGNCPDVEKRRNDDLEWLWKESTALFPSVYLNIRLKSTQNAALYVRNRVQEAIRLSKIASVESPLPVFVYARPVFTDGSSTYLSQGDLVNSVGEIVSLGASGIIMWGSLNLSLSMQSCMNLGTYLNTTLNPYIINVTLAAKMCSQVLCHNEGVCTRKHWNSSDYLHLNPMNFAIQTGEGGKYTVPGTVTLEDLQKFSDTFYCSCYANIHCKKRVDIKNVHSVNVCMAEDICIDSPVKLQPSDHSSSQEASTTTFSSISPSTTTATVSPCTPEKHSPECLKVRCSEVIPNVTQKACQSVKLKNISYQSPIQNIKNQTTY
The experiment in a line: Anti-hyaluronidase activity (modified Morgan-Elson method). It counts as biochemical. Conditions: hyaluronidase 340NF unit/ml; activating agent Compound 48/80 or CaCl2; read-out: IC50.
Procedure: A buffer soluticn of hyaluronidase (0.1 ml) was taken in a test tube and 0.2 ml each of the buffer solution of various compounds in various concentrations was added, and the mixture was preincubated at 37° C. for 20 minutes. Then, an activating agent (Compound 48/80 or CaCl2) (0.2 ml) was added to make the total amount 0.5 ml, which was incubated at 37° C. for 20 minutes. Then, potassium hyaluronate buffer solution (0.5 ml) was added, and the mixture was incubated at 37° C. for 40 minutes. After cooling, the mixture was treated with aqueous solution of 0.4N NaOH (0.2 ml) and neutralized to stop the reaction. The resulting product was subjecred to measurement of OD585 by the modified Morgan-Elson Method. […] (The final ccncentration of hyaluronidase was 340NF unit/ml.) [formula]

Series [3] concerns passive cutaneous anaphylaxis (PCA). The experiment in a line: Anti-passive cutaneous anaphylaxis activity (PCA) in rats (Test Example 9). The conditions noted are these: Rattus norvegicus, po, 10 animals. It counts as in vivo. The method, then: (§1) Wistar strain rats were sensitized with ovalbumin using aluminium hydroxide gel and Bordetella Pertussis vaccine as adjuvants. Dilutions of antiserum (16-fold and 32-fold) obtained by collecting blood samples 14 days later were administered subcutaneously in the dorsal skin of the rats of the same strain at the rate of 0.1 ml per spot, and the rats were grown for 48 hours. One hour after peroral administration of the sample solution, a mixture of antigen ovalbumin and Evans-blue dye was administered to the tail venous of the animal according to the ordinary procedure. Thirty minutes later, the animals were sacrificed by exsanguination, and the areas of blue spots (long diameter×short diameter) eliciting on the portion of the antiserum injection at the dorsal skin were measured to obtain the rate of inhibition based on the average value shown by the control animals.
This test was conducted in a manner similar to that in Test Example 2, except that the dilutions of antiserum were 12- and 24-folds.

A short description of series [4]: Acute toxicity LD50 in ICR mice (Test Example 11). Conditions: mouse, in vivo, one week, Provit method. The method, then: As test animals, ICR-strain mice (male) were used. According to the conventional procedure, suspension or solution of test sample was administered to the animals. From the number of the died animals until one week after the administration, LD50 values were obtained by Provit method.

Series [5] deals with mast cell in abdominal cavity. Description: Inhibition of histamine release from mast cell in abdominal cavity in rat (Test Example 6). Format: cell-based. The method, then:
Examination was made on the activity of inhibition of histamine release from mast cell by antigen-antibody reaction.
Swine ascaris extract solution was dinitrophenylated according to Aisen's method, dialysed, and lyophilized. The product was administered as antigen together with Bordetella Pertussis vaccine subcutaneously into the foot pad of rat. Eight days later, blood was taken to obtain antiserum. The PCA titer for this antiserum in rat was 32 to 64.
Heparin-containing PBS was injected intraperitoneally to rat which was sacrificed by exsanguination, after which the abdomen was well massaged to collect the injected PBS, which was purified by washing several times by centrifugation. The number of the mast cells contained in the solution was determined and adjusted to the designed concentration. As to method of sensitizing the cell, the above cell suspension (6 ml, 2×10^6 cells/ml) was treated with anti-DNP-Ascaris rat serum (PCA titer 32) (6 ml) and the mixture was incubated in the presence of hepain at 37° C. for 2 hours.
To the sensitized mast cell suspension the solution of the drug to be tested was added, and the mixture was preliminarily incubated at 37° C. for 12 minutes. After addition of the solution of antigen DNP-Ascaris (final concentration, 20 microgramms/ml), the mixture was further incubated for 20 minutes. After completion of the reaction, the solution was centrifuged (500 G, 10 min.) under a low temperature to obtain a supernatant solution. Histamine contained in the supernatant solution was subjected to fluorometry by crthophthalaldehyde method.

Series [6] relates to passive cutaneous anaphylaxis (PCA). Description: Anti-passive cutaneous anaphylaxis (PCA) activity in rats (Test Example 2). Conditions: Rattus norvegicus, N 10; for inhibition in vivo at 10 mg/kg: 10 mg/kg PO; for inhibition in vivo at 50 mg/kg: 50 mg/kg PO; for inhibition in vivo at 100 mg/kg: 100 mg/kg PO. It counts as in vivo, Wistar strain rats. As for the experimental part:
as §1

The subject of series [7] is mast cell in abdominal cavity. The experiment in a line: Release of histamine by dextran (T-500), mast cell in abdominal cavity (Test Example 12). Format: cell-based, rat. As for the experimental part:
(§2) Collection of mast cells in abdominal cavity and thoracic cavity and sensitizing of cells were conducted in similar manners to those in Test Example 10, respectively.
(§3) The sample solution was treated with 105 microgramms/ml phosphatidylserin PBS solution (0.5 ml) and incubated at 37° C. for 30 minutes, followed by addition of 25 mg/ml dextran (T-500) PBS solution (0.5 ml) and further incubation for 15 minutes.
(§4) This is conducted in a manner similar to that in Test Example 10.

Series [8] relates to mast cell in abdominal cavity. The experiment in a line: Release of histamine by antigen DNP-Ascaris, mast cell in abdominal cavity (Test Example 12). It counts as cell-based, rat. The conditions noted are these: 10^-3 M; stronger than DSCG. The method, then:
as §2
(1) Preparation of DNP-Ascaris antiserum was conducted in manner similar to that in Test Example 6.
This is conducted in amanner similar to that in Test Example 10.
as §4

Series [9] has as its system Mast cell in thoracic cavity. Description: Release of histamine by dextran (T-500), mast cell in thoracic cavity (Test Example 12). Format: cell-based, rat. As for the experimental part:
as §2, §3, §4

Series [10] concerns hyaluronidase. Conditions: known from the literature; cited from earlier work.
[11] abbreviates: iv, read-out: LD50 value (mg/kg body weight) Mouse i.v.
The mark [12] stands for this setting: po, read-out: LD50 value (mg/kg body weight) Mouse p.o.
[13] abbreviates: read-out: Inhibition, Anti-serum Dilution: × 12.
Setting [14] is: read-out: Inhibition, Anti-serum Dilution: × 24.
Where [15] appears, read: intravenous, read-out: LD50 Value (mg/kg of body weight) Intravenous administration.
The mark [16] stands for this setting: read-out: Average Inhibition Rate (%) Antiserum Dilution: × 16.
[17] abbreviates: read-out: Average Inhibition Rate (%) Antiserum Dilution: × 32.

For the compound `COc1cc(C=C(C(=O)Nc2ccccc2C(=O)O)C(=O)Nc2ccccc2C(=O)O)ccc1O` [Compound 24], the LD50 at 168 h in series [1] (setting [11]) is 275 mg/kg; in [1] (setting [12]) it was greater than 10000 mg/kg. The IC50 on hyaluronidase [2] was 20 µM.

As for `CC(C)(C)OC(=O)c1ccccc1NC(=O)C(=Cc1ccccc1)C(=O)Nc1ccccc1C(=O)OC(C)(C)C` [Compound 54, di-tertiary butyl 2,2'-[(1,3-dioxo-2-phenylmethylene-1,3-propanediyl)diimino]bisbenzoate], in [3] (setting [13]), the inhibition in vivo at 10 mg/kg is 33% and the inhibition in vivo at 50 mg/kg is 38.8%. Also, in series [3] (setting [14]), the inhibition in vivo at 10 mg/kg was 34.3% and the inhibition in vivo at 50 mg/kg was found to be 42.6%. In addition, in series [4] (setting [15]), the LD50 at 168 h was 312 mg/kg.

`O=c1oc(C(=Cc2ccccc2)c2nc3ccccc3c(=O)o2)nc2ccccc12` [Compound 52, 2,2'-phenylethenilidenebis(3,1-benzoxazine-4-one)]: the activity at 1000 µM in [5] (Rattus norvegicus, Mast cell, 20 min, 10^-3 M, DNP-Ascaris 20 microgramms/ml, read-out: Amount of histamine released from peritoneal mast cell (Control = 100)) was 21%. Moreover, the activity at 100 µM in series [5] (Rattus norvegicus, Mast cell, 20 min, 10^-4 M, DNP-Ascaris 20 microgramms/ml, read-out: Amount of histamine released from peritoneal mast cell (Control = 100)) was 60%. For the same compound, the activity at 10 µM in series [5] (Rattus norvegicus, Mast cell, 20 min, 10^-5 M, DNP-Ascaris 20 microgramms/ml, read-out: Amount of histamine released from peritoneal mast cell (Control = 100)) was found to be 68%. For the same compound, in series [5] (Rattus norvegicus, Mast cell, 20 min, 10^-6 M, DNP-Ascaris 20 microgramms/ml, read-out: Amount of histamine released from peritoneal mast cell (Control = 100)), the activity at 1 µM was found to be 70%. Moreover, in series [5] (even at the low concentration of 10^-6 M), the “inhibition of release of histamine from the mast cell (in words)” value is reported as “inhibiting release of histamine”. Moreover, the LD50 at 168 h in series [4] (po, peroral, read-out: LD50 Value (mg/kg of body weight) Peroral administration) is greater than 10000 mg/kg. For the same compound, the LD50 at 168 h in series [4] (setting [15]) is 319 mg/kg. In series [6] (setting [16]), the inhibition in vivo at 10 mg/kg is 20.6%, the inhibition in vivo at 50 mg/kg was found to be 37.9% and the inhibition in vivo at 100 mg/kg came out at 45%. Besides, in series [6] (setting [17]), the inhibition in vivo at 10 mg/kg was found to be 29.4%, the inhibition in vivo at 50 mg/kg worked out at 38.3% and the inhibition in vivo at 100 mg/kg amounted to 47.1%.

Take `CCOC(=O)OC(C)OC(=O)c1ccccc1NC(=O)C(=Cc1ccccc1)C(=O)Nc1ccccc1C(=O)OC(C)OC(=O)OCC` (centres unmarked) [Compound 58, di[1-(ethoxycarbonyloxy)ethyl]-2,2'-[(1,3-dioxo-2-phenylmethylene-1,3-propanediyl)diimino]bisbenzoate]: the inhibition in vivo at 10 mg/kg in [3] (setting [13]) was 40.2%; in series [3] (setting [14]), 43.1%. Besides, the inhibition in vivo at 50 mg/kg came to 50.8% in series [3] (setting [13]) and 57.6% in [3] (setting [14]).

For `CCOC(=O)c1ccccc1NC(=O)C(=Cc1ccccc1)C(=O)Nc1ccccc1C(=O)OCC` [Compound 14, Diethyl 2,2'-[(1,3-dioxo-2-phenylmethylene-1,3-propanediyl)diimino]bisbenzoate], the inhibition in vivo at 10 mg/kg in series [3] (setting [13]) amounted to 29.8%; in series [3] (setting [14]) it was 31.3%; in [6] (setting [16]) it was 38.6%; in series [6] (setting [17]) it was 38.7%. Further, the inhibition in vivo at 50 mg/kg in series [3] (setting [13]) was 36.7%; in [3] (setting [14]), 40.5%; in series [6] (setting [16]), 41.9%; in [6] (setting [17]), 72.2%. The results for the LD50 at 168 h in series [1] (setting [11]), in [1] (setting [12]) and in [4] (setting [15]) were 299 mg/kg, greater than 10000 mg/kg and 347 mg/kg, respectively. The “histamine release inhibiting activity, dextran (T-500) (in words)” value in series [7] (10^-4 and 10^-3 M, almost the same as DSCG) is on record as “histamine release inhibiting activities”. Besides, the activity at 1000 µM in series [7] (Rattus norvegicus, Mast cell, 0.25 h, 10^-3 M, read-out: Effect on release of histamine by dextran (T-500), Mast cell in abdominal cavity (control 100)) is 40.2%; in [9] (Rattus norvegicus, Mast cell, 0.25 h, 10^-3 M, read-out: Effect on release of histamine by dextran (T-500), Mast cell in thoracic cavity (control 100)), 42.2%. For the same compound, the activity at 100 µM in series [7] (Rattus norvegicus, Mast cell, 0.25 h, 10^-4 M, read-out: Effect on release of histamine by dextran (T-500), Mast cell in abdominal cavity (control 100)) turned out to be 94.5%. In addition, the “histamine release inhibiting activity, antigen DNP-Ascaris (in words)” value in [8] is reported as “histamine release inhibiting activity”. In addition, the “Effect on release of histamine by dextran (T-500), Mast cell in thoracic cavity (control 100)” value in [9] (10^-4, 15 min) is 55.6. Besides, the inhibition in vivo at 100 mg/kg in [6] (setting [16]) worked out at 59.3%; in series [6] (setting [17]) it was 85.1%.

On to `O=C(Nc1ccccc1C(=O)O)C(=Cc1ccc(Cl)cc1)C(=O)Nc1ccccc1C(=O)O` [Compound 30], for which the LD50 at 168 h turned out to be 258 mg/kg in series [1] (setting [11]) and 8380 mg/kg in series [1] (setting [12]). Further, the IC50 at hyaluronidase [2] turned out to be 10 µM. Moreover, the inhibition in vivo at 10 mg/kg in series [6] (setting [16]) is 18.8%; in series [6] (setting [17]) it was 23.2%. For the same compound, the results for the inhibition in vivo at 50 mg/kg in [6] (setting [16]) and in [6] (setting [17]) were 23.4% and 33.3%, respectively. For the same compound, the inhibition in vivo at 100 mg/kg in [6] (setting [16]) was determined as 36.5%; in series [6] (setting [17]), 42.5%.

For `CC(C)OC(=O)c1ccccc1NC(=O)C(=Cc1ccccc1)C(=O)Nc1ccccc1C(=O)OC(C)C` [Compound 53, diisopropyl 2,2'-[(1,3-dioxo-2-phenylmethylene-1,3-propanediyl)diimino]bisbenzoate], the figures for the inhibition in vivo at 50 mg/kg in series [3] (setting [13]) and in series [3] (setting [14]) were 26.1% and 23.9%, respectively.

On to polymixin B, for which the “effect on hyaluronidase activity (in words)” value with hyaluronidase [10] is “activate hyaluronidase”.
